The source of these data is ChEMBL document CHEMBL6127083, “A mini-review on integrase inhibitors: The cornerstone of next-generation HIV treatment” (Eur J Med Chem, 2024).

In data set [1] the target is T1, Human immunodeficiency virus type 1 integrase (Human immunodeficiency virus 1, UniProt Q7ZJM1). Put plainly: Inhibition of HIV-1 integrase.
The nature of data set [2]: Oral bioavailability in rat at 2 mg/kg by LC-MS/MS analysis. Type of data set: ADME, organism-based. Conditions: in vivo.
Data set [3] can be described thus: Cytotoxicity against human TZM-bl cells assessed as reduction in cell viability incubated for 48 hrs by MTT assay. Type of data set: toxicity, cell-based. For orientation: Tetrazolium dyes change colour on reduction, which living cells bring about.
The target in data set [4] is T1, Human immunodeficiency virus type 1 integrase. Description: Inhibition of HIV-1 integrase incubated for 30 mins by strand transfer activity.
In data set [5] the test system is Human immunodeficiency virus 1. Put plainly: Antiviral activity against HIV-1 IIIB infected in human MT4 cells assessed as protection against virus induced cytopathic effect. Conditions: Human immunodeficiency virus 1, IIIB. Type of data set: functional, organism-based. (In general: Protection from cytopathic effect is a common read-out in antiviral testing.)
Data set [6] relates to Human immunodeficiency virus 1. Description: Antiviral activity against HIV-1 IIIB infected in human MT2 cells assessed as reduction in virus induced cytopathic effect incubated overnight by ELISA method. Type of data set: functional, organism-based. The settings on record: Human immunodeficiency virus 1, 3B.
A short description of data set [7]: Inhibition of wild type HIV integrase strand transfer activity. The arrangement: species or system Human immunodeficiency virus.
The test system of data set [8] is Human immunodeficiency virus 1. Put plainly: Antiviral activity against HIV1 IIIB harboring N155H mutant infected in MT4 cells assessed as reduction in virus induced cytopathic effect incubated for 5 days by MTT assay. Type of data set: functional, organism-based. The settings on record: Human immunodeficiency virus 1, IIIB, MT4, 120 h.
Data set [9] has as its system Human immunodeficiency virus 1. Put plainly: Antiviral activity against HIV1 IIIB harboring S230N mutant infected in MT4 cells assessed as reduction in virus induced cytopathic effect incubated for 5 days by MTT assay. Type of data set: functional, organism-based. The settings on record: Human immunodeficiency virus 1, IIIB, MT4, 120 h.
The test system of data set [10] is Human immunodeficiency virus 1. Description: Antiviral activity against HIV-1 3B infected in human MT4 cells assessed as reduction in viral replication incubated for 5 days by MTT assay. Type of data set: functional, organism-based. Conditions: Human immunodeficiency virus 1, 3B, MT4, 120 h.
The target of data set [11] is Human immunodeficiency virus type 1 reverse transcriptase (Human immunodeficiency virus 1, UniProt Q72547). Put plainly: Inhibition of recombinant HIV-1 reverse transcriptase associated RNase H extracted from Escherichia coli BL21 (DE3) by microplate reader analysis.
In data set [12] the test system is Human immunodeficiency virus 1. Description: Antiviral activity against HIV1 IIIB harboring E138K mutant infected in MT4 cells assessed as reduction in virus induced cytopathic effect incubated for 5 days by MTT assay. Type of data set: functional, organism-based. The settings on record: Human immunodeficiency virus 1, IIIB, MT4, 120 h.
Data set [13] concerns the target T1, Human immunodeficiency virus type 1 integrase. Description: Inhibition of HIV-1 integrase strand transfer activity.
Data set [14] can be described thus: Half life in rat. Type of data set: ADME. The settings on record: in vivo.
The test system of data set [15] is Human immunodeficiency virus 1. Description: Antiviral activity against HIV1 harboring E138K mutant infected in MT4 cells assessed as reduction in virus induced cytopathic effect incubated for 5 days by MTT method. Type of data set: functional, organism-based. The settings on record: Human immunodeficiency virus 1, MT4, 120 h.
Data set [16] has as its target Human immunodeficiency virus type 1 integrase (Human immunodeficiency virus 1) (UniProt Q7ZJM1). Description: Inhibition of HIV-1 integrase at 20 uM relative to control.
Data set [17] shares this target. Put plainly: Inhibition of HIV-1 integrase at 100 uM relative to control.
In data set [18] the test system is Human immunodeficiency virus 1. Description: Antiviral activity against HIV-1 3B infected in human MT4 cells assessed as reduction in virus-induced cytopathic effect measured for 5 days by MTT assay. Type of data set: functional, organism-based. Conditions: Human immunodeficiency virus 1, 3B, MT4, 120 h.

Broadly, the IC50 is the point on the concentration scale where inhibition reaches its midpoint. One may read the bioavailability as the share of a dose that reaches the circulation, judged against a reference dose that is usually intravenous. High values mean good availability, low ones poor availability. By CC50 is commonly meant the concentration that lowers cell viability or growth by half. By EC50 is commonly meant the concentration giving half of the maximal effect. What is called half-life is the time in which the quantity being followed falls by half. Broadly, the inhibition is the relative decrease from the control value, in per cent. A higher inhibition goes with strong suppression.

T1 sequence (Q7ZJM1 whole entry): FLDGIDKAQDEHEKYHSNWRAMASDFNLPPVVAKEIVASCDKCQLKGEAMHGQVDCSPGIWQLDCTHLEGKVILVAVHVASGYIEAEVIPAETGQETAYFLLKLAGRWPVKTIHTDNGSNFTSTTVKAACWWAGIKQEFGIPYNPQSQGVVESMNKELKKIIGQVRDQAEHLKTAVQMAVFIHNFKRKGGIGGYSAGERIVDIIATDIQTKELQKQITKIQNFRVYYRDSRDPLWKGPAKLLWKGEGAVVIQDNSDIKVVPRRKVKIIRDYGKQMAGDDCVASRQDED
Chain of Human immunodeficiency virus type 1 integrase (Human immunodeficiency virus 1) (Q7ZJM1 as listed by the source): as the sequence (Q7ZJM1 whole entry) above

Take `CC1COC2(C1)Cn1cc(C(=O)NCc3ccc(F)cc3F)c(=O)c(O)c1C(=O)C2(C)C` (centres undefined): the 50% inhibitory concentration (IC50) in data set [1] stood at 0.17 µM.

The compound `O=C(O)c1ccc2ccc(/C=C/c3cc(O)c(O)c(O)c3)nc2c1O` registered an IC50 in data set [1] of 1.2 µM.

Compound `Cc1ccc(CCOc2ccc(-c3c(C)nc(C)c([C@H](OC(C)(C)C)C(=O)O)c3N3CCC(C)(C)CC3)cc2)cc1` registered a bioavailability in data set [2] of 52%.

With `COc1ccc(-c2ccc3c(-c4ccc(F)cc4F)cn(C)c3n2)cc1`, in [3], the CC50 at 48 h turned out to be 49.3 µM.

In [1], `CCCCCn1c(=O)c(C(=O)Nc2cccc([N+](=O)[O-])c2O)c(O)c2ccccc21` registered an IC50 of 9 µM.

In [4], `O=C(O)c1cc2ccc(Nc3ccc(F)cc3)cc2[nH]1` gave an IC50 of 3.11 µM.

The compound `O=C(O)c1[nH]c2ccc([N+](=O)[O-])cc2c1COCc1ccc(C(F)(F)F)cc1` showed an IC50 in data set [4] of 10.5 µM.

`O=C(O)/C(O)=C/C(=O)c1cccc(Cc2ccccc2F)c1`: the EC50 in [5] turned out to be 0.02 µM.

For the compound `COC(=O)/C(O)=C/C(=O)c1cc2cc3c(cc2n1-c1ccccc1)OCO3`, the concentration giving a half-maximal response (EC50) in data set [6] amounted to 4.29 µM.

For `O=C(O)/C(O)=C/C(=O)c1ccc(C(c2cccc(C(=O)/C=C(\O)C(=O)O)c2)c2ccccc2F)cc1` (centres undefined), the half-maximal effective concentration (EC50) in [6] was found to be 17 µM.

In the case of `O=c1cc(-c2ccc(O)c(O)c2)oc2cc(O[C@@H]3O[C@H](CO)[C@@H](O)[C@H](O)[C@H]3OS(=O)(=O)O)cc(O)c12`, it took 0.4 µM to reach half-maximal inhibition in [1] (IC50).

For the compound `CC(C)N1CCn2cc(C(=O)NCc3ccc(F)cc3F)c(=O)c(O)c2C1=O`, the IC50 in data set [7] is 1.7 µM; in [8], 5 µM; in [9] it was 3 µM.

As for `COc1ccc(C(=O)CC(=O)C(=O)O)cc1CN=[N+]=[N-]`, in data set [10], the IC50 was over 25 µM.

`CCOC(=O)c1[nH]c2ccccc2c1Nc1ccccc1OC`: the IC50 in data set [4] amounted to 10.1 µM.

Take `COC(=O)C1C(=O)N(O)C(=O)c2ccccc21` (centres undefined): the IC50 in data set [11] was found to be 0.06 µM.

With `Cn1cc(-c2ccc3c(c2)OCO3)c2ccc(-c3ccncc3)nc21`, the CC50 at 48 h in data set [3] is over 200 µM.

As to `CC(C)Cn1ccn2cc(C(=O)NCc3ccc(F)cc3F)c(=O)c(O)c2c1=O`, the IC50 in data set [7] came to 3 µM; in data set [8], 3.6 µM; in data set [9], 4.7 µM. Moreover, the 50% effective concentration (EC50) in data set [12] came to 0.06 µM.

As to `N#CCCc1cccc(C(=O)CC(=O)C(=O)O)c1`, the half-inhibitory concentration (IC50) in data set [10] was over 25 µM.

`[N-]=[N+]=NCc1cc(CN=[N+]=[N-])cc(C(=O)CC(=O)C(=O)O)c1`: in data set [10], the IC50 came to 5 µM.

Consider `CC1COC2(C1)Cn1cc(C(=O)NCc3cccc(Cl)c3F)c(=O)c(O)c1C(=O)C2(C)C` (centres undefined), for which the IC50 in [1] amounted to 1.23 µM.

For the compound `CC(C)n1ccn2cc(C(=O)NCc3ccc(F)cc3F)c(=O)c(O)c2c1=O`, the values for the IC50 in data set [7], in [8] and in data set [9] were 3.8 µM, 4.3 µM and 4.8 µM, respectively. Further, in [12], the EC50 worked out at 0.05 µM.

`O=C(NCc1c(F)cc(F)cc1F)c1cn2c(c(O)c1=O)C(=O)N1[C@H]3CC[C@H](C3)O[C@@H]1C2` [BICTEGRAVIR] came in with a half-maximal inhibitory concentration (IC50) in [13] of 2.4 µM.

Turning to `[N-]=[N+]=NCc1ccc(C(=O)CC(=O)C(=O)O)cc1CN=[N+]=[N-]`, the IC50 in [10] is 14.3 µM.

Consider `CC1COC2(C1)[C@H](C)n1cc(C(=O)NCc3ccc(F)cc3F)c(=O)c(O)c1C(=O)C2(C)C` (some centres undefined), for which half-maximal inhibition in data set [1] (IC50) required 0.14 µM.

For `Cn1c(=O)c(C(=O)O)c(O)c2cc(-c3ccc(F)cc3)ccc21`, the midpoint of inhibition in data set [1], the IC50, lay at 0.9 µM.

Consider `C[C@@H]1CCO[C@H]2Cn3cc(C(=O)NCc4ccc(F)cc4F)c(=O)c(O)c3C(=O)N12` [DOLUTEGRAVIR], for which the half-life in data set [14] was 6.2 h.

In turn, `CC(C)Oc1ccc(Cc2ccccc2)cc1C(=O)CC(=O)C(=O)O` gave a half-maximal inhibitory concentration (IC50) in [1] of 0.1 µM.

Compound `O=C(NCc1ccc(O)c(O)c1)c1ccc2ccc(C(=O)O)c(O)c2n1` yielded a concentration for half-maximal inhibition (IC50) in data set [1] of 1 µM.

`C[C@H]1CO[C@@H]2Cn3cc(C(=O)NCc4ccc(F)cc4F)c(=O)c(O)c3C(=O)N12` [CABOTEGRAVIR] gave a 50% inhibitory concentration (IC50) in data set [13] of 1.8 µM. In addition, the EC50 in [15] was determined as 4.77 µM.

In data set [4], `CCOC(=O)c1cc2cc(NC(=O)c3cnccn3)ccc2[nH]1` had an IC50 of 11.7 µM.

The compound `COc1ccc2[nH]c(=O)c(CNC3CCCC3)cc2c1` registered an inhibition in [16] of 39.9%.

In data set [17], `NNC(=O)c1ncn(-c2ccc(Br)cc2)c1-c1cccc(F)c1` showed an inhibition of 50%.

As for `O=C(O)c1cc2ccccc2[nH]1` [INDOLE-2-CARBOXYLIC ACID], the IC50 in [4] was 32.3 µM.

Take `[N-]=[N+]=NCc1cccc(C(=O)CC(=O)C(=O)O)c1`: the 50% inhibitory concentration (IC50) in data set [10] was 2.1 µM.

With `O=C(NCc1ccccc1)C1C(=O)N(O)C(=O)c2ccccc21` (centres undefined), in data set [11], the concentration for half-maximal inhibition (IC50) is 0.36 µM.

Regarding `O=C(CCC(=O)/C(O)=C/C(=O)c1cccc(Cc2ccccc2F)c1)/C(O)=C/C(=O)c1cccc(Cc2ccccc2F)c1`, the concentration giving a half-maximal response (EC50) in [5] stood at 0.2 µM.

`CC(C)Oc1ccc(Cc2ccccc2)cc1C(=O)/C=C(\O)C(=O)O` yielded an IC50 in data set [1] of under 0.1 µM.

For the compound `O=C(O)/C(O)=C/C(=O)c1cc2ccccc2n1-c1ccccc1`, the EC50 in [6] came out at 4.29 µM.

Take `O=C(O)/C(O)=C/C(=O)c1nc2ccccc2n1Cc1ccccc1F`: the concentration for a half-maximal effect (EC50) in data set [18] was 40 µM.

On to `O=C(O)/C(O)=C/C(=O)c1ccc(OCc2ccccc2COc2cccc(C(=O)/C=C(\O)C(=O)O)c2)cc1`, for which, in data set [6], the EC50 amounted to 39 µM.
